Measured values reported in ChEMBL document CHEMBL1134891, “Design and synthesis of conformationally restricted eight-Membered ring diketones as potential serine protease inhibitors” (Bioorg Med Chem Lett, 2002).

Legend:
[1] = biological target: Urokinase-type plasminogen activator (Homo sapiens) (UniProt P00749); experiment: Compound was tested for percentage inhibition of urokinase in enzyme rate assays; NI denotes no significant inhibition at 100 uM
[2] = biological target: Plasminogen (Homo sapiens) (UniProt P00747); experiment: Compound was tested for percentage inhibition of plasmin in enzyme rate assays; NI denotes no significant inhibition at 100 uM
[3] = biological target: Plasminogen (Homo sapiens) (UniProt P00747); experiment: Compound was tested for percentage inhibition of plasmin in enzyme rate assays; conditions: concentration not given here
[4] = biological target: Urokinase-type plasminogen activator (Homo sapiens) (UniProt P00749); experiment: Compound was tested for percentage inhibition of urokinase in enzyme rate assays; conditions: concentration not given here

Plasminogen (Homo sapiens), sequence (P00747 97-580 limits assumed): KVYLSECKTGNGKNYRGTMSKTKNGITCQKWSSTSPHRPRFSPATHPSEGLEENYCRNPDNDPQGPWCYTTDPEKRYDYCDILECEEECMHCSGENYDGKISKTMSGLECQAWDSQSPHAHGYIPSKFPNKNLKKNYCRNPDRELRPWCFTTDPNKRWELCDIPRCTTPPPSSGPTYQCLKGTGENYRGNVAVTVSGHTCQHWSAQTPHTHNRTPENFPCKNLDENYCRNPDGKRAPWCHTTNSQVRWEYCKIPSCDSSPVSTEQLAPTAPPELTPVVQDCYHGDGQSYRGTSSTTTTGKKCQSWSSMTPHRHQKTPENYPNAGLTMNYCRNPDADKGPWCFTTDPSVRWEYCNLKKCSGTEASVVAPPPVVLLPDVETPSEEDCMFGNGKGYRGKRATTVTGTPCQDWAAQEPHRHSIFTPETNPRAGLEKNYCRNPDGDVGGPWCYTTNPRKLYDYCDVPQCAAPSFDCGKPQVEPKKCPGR
Plasminogen (Homo sapiens), sequence (P00747 581-810 limits assumed): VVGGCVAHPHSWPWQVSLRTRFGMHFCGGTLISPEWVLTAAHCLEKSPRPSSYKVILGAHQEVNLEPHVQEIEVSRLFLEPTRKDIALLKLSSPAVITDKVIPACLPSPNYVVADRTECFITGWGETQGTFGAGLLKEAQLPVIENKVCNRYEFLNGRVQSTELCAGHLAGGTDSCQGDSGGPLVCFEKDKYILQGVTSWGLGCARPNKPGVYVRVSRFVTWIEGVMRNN

CC[C@]1(C)CC[C@]2(C)[C@H](C)CC[C@]3(CCC(=O)[C@H]32)C(=O)C1=O
inhibition [1]: No inhibition | inhibition [2]: No inhibition

CC(=O)N[C@]1(C)CC[C@]2(C)[C@H](C)CC[C@]3(CCC(=O)[C@H]32)C(=O)C1=O
inhibition [3]: 25% | inhibition [4]: 28%
